This is an account of results in patent publication US5612378A, “Bis-arylsulfonylaminobenzamide derivatives and the use thereof as factor Xa inhibitors” (priority 1995, dated 1997).

One assay concerns the target human α-thrombin (Homo sapiens, UniProt P00734). Put plainly: In vitro inhibition of purified human thrombin (hydrolysis of Bz-Phe-Val-Arg-pNa). The class given is biochemical. The settings on record: inhibitor at 6 μM, [thrombin]=36 nM, [Bz-Phe-Val-Arg-pNa]=66 μM, pH 7.5, 37° C. The procedure:
The ability of the compounds of the present invention to act as inhibitors of thrombin, factor Xa and plasmin catalytic activity was assessed by determining the concentration which inhibited enzyme activity by 50% using purified human enzymes. The concentration of added inhibitor that caused a 50% decrease in the initial rate of hydrolysis was defined as the IC50 value.
All assays are based on the ability of the test compound to inhibit the hydrolysis of a peptide p-nitroanilide substrate. In a typical experiment, appropriate substrate is prepared in DMSO, and diluted into an assay buffer consisting of 50mM HEPES and 130 mM NaCl at a pH of 7.5. The final concentration for each of the substrates is listed below. All substrate concentrations are at least 10 fold lower than Km to insure inhibition is competitive. Test compounds are prepared as 1 mg/ml solutions in DMSO, and three additional 10-fold dilutions in DMSO are prepared. Enzyme solutions are prepared at the concentrations listed below in assay buffer.
(§1) In a typical IC50 determination, into each well of a 96 well plate is pipetted 280 uL of substrate solution, 10 μL of inhibitor solution, and the plate is allowed to thermally equilibrate at 37° C. in a Molecular Devices Plate Reader for at least 10 minutes. Reactions are initiated by the addition of a 20 μL aliquot of enzyme, and the absorbance increase at 405 nm is recorded for 15 minutes. Data corresponding to less than 10% of the total substrate hydrolysis is used in the calculations. The ratio of the velocity (rate of the change in absorbance as a function of time) for a sample containing no inhibitor is divided by the velocity of a sample containing inhibitor, and is plotted as a function of inhibitor concentration. The inverse of the slope is the concentration of inhibitor which produces a 50% decrease in activity of the enzyme. This concentration is referred to as the IC50.
Thrombin activity was assessed as the ability to hydrolyse the substrate N-benzoyl-Phe-Val-Arg-p-nitroanilide (Bz-Phe-Val-Arg-pNa), and was obtained from Sigma Chemical Company (St. Louis, Mo.). Substrate solutions were prepared at a concentration of 60 μM (60 μM<<Km =1.2 mM) in assay buffer. Final DMSO concentration was 0.3%. […] Final reagent concentrations were: [thrombin]=36 nM, [Bz-Phe-Val-Arg-pNa]=66 μM, [inhibitor]=60 to 0.06 μM.

Assay [1] deals with T1, Factor Xa (Homo sapiens, UniProt P00742).
T1 construct: purchased Enzyme Research Laboratories, Inc
Put plainly: In vitro inhibition of purified human factor Xa (hydrolysis of Bz-Ile-Glu-Gly-Arg-pNa). The settings on record: purified human enzyme, [Factor Xa]=10 nM, [Bz-Ile-Glu-Gly-Arg-pNa]=26 μM, pH 7.5, 37° C. The class given is biochemical. The procedure:
The ability of the compounds of the present invention to act as inhibitors of thrombin, factor Xa and plasmin catalytic activity was assessed by determining the concentration which inhibited enzyme activity by 50% using purified human enzymes.
All assays are based on the ability of the test compound to inhibit the hydrolysis of a peptide p-nitroanilide substrate. In a typical experiment, appropriate substrate is prepared in DMSO, and diluted into an assay buffer consisting of 50mM HEPES and 130 mM NaCl at a pH of 7.5. The final concentration for each of the substrates is listed below. […] Test compounds are prepared as 1 mg/ml solutions in DMSO, and three additional 10-fold dilutions in DMSO are prepared. Enzyme solutions are prepared at the concentrations listed below in assay buffer.
as §1, with “Reactions” for “In a typical IC50 determination, into each well of a 96 well plate is pipetted 280 uL of substrate solution, 10 μL of inhibitor solution, and the plate is allowed to thermally equilibrate at 37° C. in a Molecular Devices Plate Reader for at least 10 minutes. Reactions”
Factor Xa activity was assessed as the ability to hydrolyse the substrate Bz-Ile-Glu-Gly-Arg-pNa, and was obtained from Sigma. […] Final DMSO concentration was 0.3%.

Assay [2] relates to factor Xa. Particulars: cited from earlier work.
In another assay the test system is experimental restenosis. The settings on record: in vivo; cited from earlier work.
A further assay deals with smooth muscle cell. The settings on record: U.S. Pat. No. 5,385,885; cited from earlier work.
The conditions of assay [3]: given as adjuncts to thrombolysis; cited from earlier work.

T1 sequence (P00742 235-488 limits assumed): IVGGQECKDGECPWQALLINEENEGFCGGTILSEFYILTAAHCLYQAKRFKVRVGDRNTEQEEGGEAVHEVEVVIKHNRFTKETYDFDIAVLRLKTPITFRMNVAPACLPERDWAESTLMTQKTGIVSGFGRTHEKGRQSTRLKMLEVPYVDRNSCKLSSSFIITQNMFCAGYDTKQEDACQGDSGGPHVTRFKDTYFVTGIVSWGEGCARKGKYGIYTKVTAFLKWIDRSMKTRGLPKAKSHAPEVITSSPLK
T1 sequence (P00742 41-179 partner limits assumed): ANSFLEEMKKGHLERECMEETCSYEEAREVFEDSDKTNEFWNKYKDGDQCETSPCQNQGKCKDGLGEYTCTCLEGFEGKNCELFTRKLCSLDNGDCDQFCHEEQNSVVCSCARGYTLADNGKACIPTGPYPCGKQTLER

For `O=C(NCCCCCCCCNC(=O)c1cccc(NS(=O)(=O)c2ccc3ccccc3c2)c1)c1cccc(NS(=O)(=O)c2ccc3ccccc3c2)c1` [Example 5, 1,8-di[3-(2-naphthalenylsulfonylamino)benzamido]octane], on human α-thrombin, the inhibition at 6 µM came to 20%. The molecule further registered an IC50 at Factor Xa [1] of 2.1 µM.
For “ecotin: The peptide ecotin is another selective, reversible, tight-binding inhibitor of factor Xa”, the “inhibition of factor Xa” value with factor Xa [2] is recorded as “selective, reversible, tight-binding inhibitor of factor Xa”.
Take “TAP: soft tick derived protein TAP (tick anticoagulant peptide) (YNRLCIKPRDWIDECDSNEGGERAYFRNGKGGCDSFWICPEDHTGADYYSSYRDCFNACI; UniProt P17726 1-60, looked up)”: the “reduction of experimental restenosis” value with experimental restenosis was “reduce experimental restenosis”. The “smooth muscle cell proliferation inhibitory activity” value with smooth muscle cell was “smooth muscle cell proliferation inhibitory activity”. Further, the “clot lysis and reocclusion” value in assay [3] is “accelerated clot lysis and prevented reocclusion”.
Take `O=C(NCCCN1CCN(CCCNC(=O)c2cccc(NS(=O)(=O)c3ccc4ccccc4c3)c2)CC1)c1cccc(NS(=O)(=O)c2ccc3ccccc3c2)c1` [Example 6, 1,4-di-[3-(2-naphthalenylsulfonylamino)benzamidopropyl]piperazine]: the inhibition at 6 µM at human α-thrombin amounted to 0%. This molecule showed a concentration for half-maximal inhibition (IC50) on Factor Xa [1] of 5.2 µM.
`O=C(NCCCCCNC(=O)c1cccc(NS(=O)(=O)c2ccc3ccccc3c2)c1)c1cccc(NS(=O)(=O)c2ccc3ccccc3c2)c1` [Example 4, 1,5-di[3-(2-naphthalenylsulfonylamino)benzamido]pentane]: at 6 µM the inhibition against human α-thrombin was 0%. The molecule also displayed an IC50 against Factor Xa [1] of 3 µM.
Regarding `O=C(NCc1cccc(CNC(=O)c2cccc(NS(=O)(=O)c3ccc4ccccc4c3)c2)c1)c1cccc(NS(=O)(=O)c2ccc3ccccc3c2)c1` [Example 7, 1,3-di-[3-(2-naphthalenylsulfonylamino)benzamidomethyl]benzene], on human α-thrombin, the inhibition at 6 µM came to 20%. This molecule gave an IC50 against Factor Xa [1] of 2.4 µM.

B1: antistasin: leech-derived, 119-amino acid protein antistasin (protein, UniProt P15358 18-136, looked up)
Antistasin: QGPFGPGCEEAGCPEGSACNIITDRCTCSGVRCRMHCPHGFQRSRYGCEFCKCRLEPMKATCDISECPEGMMCSRLTNKCDCKIDINCRKTCPNGLKRDKLGCEYCECRPKRKLIPRLS
Regarding B1, the “reduction of experimental restenosis” value in the assay on experimental restenosis was “reduce experimental restenosis”. Moreover, in the assay on smooth muscle cell, the “smooth muscle cell proliferation inhibitory activity” value was “smooth muscle cell proliferation inhibitory activity”. Moreover, in assay [3], the “clot lysis and reocclusion” value was “accelerated clot lysis and prevented reocclusion”.
